In general, IC50 refers to the concentration that inhibits the measured activity by half.

The source of these data is patent publication US9359308B2, “Pyrazine kinase inhibitors” (Portola Pharmaceuticals, Inc., priority 2011, dated 2016).

The structures appear in SMILES notation.

The experiment concerns the target T1, full length active recombinant SYK enzyme (Homo sapiens, UniProt P43405).
T1 construct: full length active recombinant SYK enzyme (Millipore, Calif.); purchased Millipore
Briefly: Inhibition of Syk tyrosine phosphorylation activity (LANCE TR-FRET kinase assay). The class given is biochemical. The settings on record: activity in the Syk assays, class symbols. An excerpt:
The in vitro and in vivo human Syk activities of the inventive compounds can be determined by various procedures known in the art, such as a test for their ability to inhibit the activity of human plasma Syk. […] The IC50 value is the concentration (in nM) of the compound required to provide 50% inhibition of human Syk proteolytic activity.
An in vitro assay for detecting and measuring inhibition activity against Syk is as follows:
Inhibition of Syk Tyrosine Phosphorylation Activity
Potency of candidate molecules for inhibiting Syk tyrosine phosphorylation activity is assessed by measuring the ability of a test compound to inhibit Syk-mediated tyrosine phosphorylation of a Syk-specific substrate.
SYK tyrosine phosphorylation activity is measured using the LANCE™ Technology developed by Perkin Elmer Life and Analytical Sciences (Boston, Mass.). LANCE™ refers to homogeneous time resolved fluorometry applications using techniques such as time-resolved fluorescence resonance energy transfer assay (TR-FRET) (see generally for procedures in Perkin Elmer Application Note-How to Optimize a Tyrosine Kinase Assay Using Time Resolved Fluorescence-Based LANCE Detection, wwww.perkinelmer.com/lifesciences). The assay principle involves detection of a phosphorylated substrate using energy transfer from a phosphospecific europium-labeled antibody to streptavidin-allophycocyanin as an acceptor.
To test the ability of candidate molecules to inhibit SYK tyrosine phosphorylation activity, molecules are reconstituted in 30% DMSO and serially diluted 1:3 with the final dilution containing DMSO in the absence of the candidate molecule. The final DMSO concentration in the assay is 3%. Kinase assays are performed as a two part reaction. The first reaction is a kinase reaction and which comprises of a candidate molecule, full length active recombinant SYK enzyme (Millipore, Calif.) and biotin-labeled SYK-specific substrate biotin-DEEDYESP-OH. The second reaction involves termination of the kinase reaction and the simultaneous addition of the detection reagents-europium-labeled anti-phosphotyrosine reagent (Eu-W1024-PY100, Perkin Elmer, Boston, Mass.) and Streptavidin-Allophycocyanin detection reagent (SA-APC, Prozyme, CA). The kinase reaction is performed in a black U-bottom 96-well microtitre plate. The final reaction volume is 50 μL and contains a final concentration of 1 nM active SYK enzyme, 550 nM SYK-substrate, and 100 μM ATP diluted in a buffer containing 50 mM Tris pH 7.5, 5 mM MgCl2, and 1 mM DTT. The reaction is allowed to proceed for 1 hour at room temperature. The quench buffer contains 100 mM Tris pH 7.5, 300 mM NaCl2, 20 mM EDTA, 0.02% Brij35, and 0.5% BSA. The detection reagents are added to the reaction mixture at the following dilutions-1:500 for Eu-W1024-PY100 and 1:250 for SA-APC. The kinase reaction is terminated by the addition of 50 μL quench buffer containing the detection reagents. The detection is allowed to proceed for 1 hr at room temperature. Detection of the phosphorlated substrate in the absence and presence of inhibitors is measured in the TR-FRET instrument, Analyst HT (Molecular Probes, Sunnyvale, Calif.) and the condition for measurements are set up using CriterionHost Release 2.0 (Molecular Probes, Sunnyvale, Calif.). The settings used are a follows: excitation 360 nm, emission 665-7.5 nm, beam splitter 350 nm 50/50, flash 100 pulses, delay 60 us, integration 400 us, z-height 2 mm. Inhibition of SYK-tyrosine kinase activity is calculated as the maximum response observed in the presence of inhibitor, compared to that in the absence of inhibitor. IC50s were derived by non-linear regression analysis.
(In general: In TR-FRET formats the signal depends on donor and acceptor labels being close together.)

For the compound `CC[C@@H](Nc1cnc(C(N)=O)c(Nc2ccc(C(=O)N3CC(F)(F)C3)nc2)n1)C(N)=O` [Example 301, (R)-5-(1-amino-1-oxobutan-2-ylamino)-3-(6-(3,3-difluoroazetidine-1-carbonyl)pyridin-3-ylamino)pyrazine-2-carboxamide], the IC50 fell in the range of 10 to 100 nM.

Regarding `Cc1cc(Nc2nc(N[C@H](CC3CC3)C(N)=O)c(Cl)nc2C(N)=O)sn1` [Example 136, (R)-5-((1-amino-3-cyclopropyl-1-oxopropan-2-yl)amino)-6-chloro-3-((3-methylisothiazol-5-yl)amino)pyrazine-2-carboxamide], the IC50 fell in the range of 10 to 100 nM.

In the case of `NC(=O)c1ncc(N[C@@H]2CCCC[C@@H]2N)nc1Nc1cc(C2CC2)no1` [Example 231, 5-((1R,2S)-2-aminocyclohexylamino)-3-(3-cyclopropylisoxazol-5-ylamino)pyrazine-2-carboxamide], the half-inhibitory concentration (IC50) lay within 10 to 100 nM.

Consider `CC(C)(C)C[C@@H](Nc1cnc(C(N)=O)c(Nc2cnn(C3CC3)c2)n1)C(N)=O` [Example 259, (R)-5-(1-amino-4,4-dimethyl-1-oxopentan-2-ylamino)-3-(1-cyclopropyl-1H-pyrazol-4-ylamino)pyrazine-2-carboxamide], for which the IC50 fell in the range of 10 to 100 nM.

In the case of `NC(=O)c1ncc(N[C@@H]2CCCC(F)(F)[C@@H]2N)nc1Nc1cc(C2CC2)ns1` [Example 242, 5-((1R,2R)-2-amino-3,3-difluorocyclohexylamino)-3-(3-cyclopropylisothiazol-5-ylamino)pyrazine-2-carboxamide], the 50% inhibitory concentration (IC50) is 1 to 10 nM.

For the compound `NC(=O)c1ncc(N[C@@H]2CCCC[C@@H]2N)nc1Nc1ccc(-n2ccccc2=O)cc1` [Example 440, 5-(((1R,2S)-2-aminocyclohexyl)amino)-3-((4-(2-oxopyridin-1(2H)-yl)phenyl)amino)pyrazine-2-carboxamide], the IC50 fell in the range of 10 to 100 nM.

On to `NC(=O)c1ncc(Nc2cccc(-n3nccn3)c2)nc1N[C@@H]1CCCC[C@@H]1N` [Example 96, 5-(3-(2H-1,2,3-triazol-2-yl)phenylamino)-3-((1R,2S)-2-aminocyclohexylamino)pyrazine-2-carboxamide], for which the half-maximal inhibitory concentration (IC50) is 10 to 100 nM.

As to `CC[C@@H](Nc1cnc(C(N)=O)c(Nc2cnn(-c3ccccc3)c2)n1)C(N)=O` [Example 173, (R)-5-(1-amino-1-oxobutan-2-ylamino)-3-(1-phenyl-1H-pyrazol-4-ylamino)pyrazine-2-carboxamide], the IC50 lay within 10 to 100 nM.

For the compound `CC[C@@H](Nc1cnc(C(N)=O)c(Nc2cc(CN3CCOCC3)ns2)n1)C(N)=O` [Example 254, (R)-5-(1-amino-1-oxobutan-2-ylamino)-3-(3-(morpholinomethyl)isothiazol-5-ylamino)pyrazine-2-carboxamide], the IC50 lay within 100 to 1000 nM.

For the compound `CC[C@@H](Nc1cnc(C(N)=O)c(Nc2snc3sccc23)n1)C(N)=O` [Example 271, (R)-5-(1-amino-1-oxobutan-2-ylamino)-3-(thieno[2,3-c]isothiazol-3-ylamino)pyrazine-2-carboxamide], the IC50 is less than 1 nM.

As for `CC(C)C[C@@H](Nc1cnc(C(N)=O)c(Nc2ccc(C(=O)N3CC(C#N)C3)nc2)n1)C(N)=O` [Example 321, (R)-5-(1-amino-4-methyl-1-oxopentan-2-ylamino)-3-(6-(3-cyanoazetidine-1-carbonyl)pyridin-3-ylamino)pyrazine-2-carboxamide], the IC50 lay within 1 to 10 nM.

For `CS(=O)(=O)c1ccc(Nc2nc(N[C@@H]3CCCC(F)(F)[C@@H]3N)cnc2C(N)=O)cc1` [Example 167, 5-((1R,2R)-2-amino-3,3-difluorocyclohexylamino)-3-(4-(methylsulfonyl)phenylamino)pyrazine-2-carboxamide], the IC50 was in the range of 10 to 100 nM.

On to `NC(=O)c1ncc(N[C@@H]2CCCC(F)(F)[C@@H]2N)nc1Nc1cc(-c2ccccc2)no1` [Example 387, 5-((1R,2R)-2-amino-3,3-difluorocyclohexylamino)-3-(3-phenylisoxazol-5-ylamino)pyrazine-2-carboxamide], for which the half-inhibitory concentration (IC50) was greater than 1000 nM.

On to `CC(C)[C@@H](Nc1cnc(C(N)=O)c(Nc2cnc3cccnc3c2)n1)C(N)=O` [Example 193, (R)-3-(1,5-naphthyridin-3-ylamino)-5-(1-amino-3-methyl-1-oxobutan-2-ylamino)pyrazine-2-carboxamide], for which the concentration for half-maximal inhibition (IC50) was in the range of 10 to 100 nM.

As to `CC[C@@H](Nc1cnc(C(N)=O)c(Nc2ccc(C(=O)N(C)C)cc2)n1)C(N)=O` [Example 299, (R)-5-(1-amino-1-oxobutan-2-ylamino)-3-(4-(dimethylcarbamoyl)phenylamino)pyrazine-2-carboxamide], the IC50 is 100 to 1000 nM.

With `Cc1cc(Nc2nc(N[C@H](CC3CC3)C(N)=O)cnc2C(N)=O)ccn1` [Example 101, (R)-5-(1-amino-3-cyclopropyl-1-oxopropan-2-ylamino)-3-(2-methylpyridin-4-ylamino)pyrazine-2-carboxamide], the IC50 was 1 to 10 nM.

For the compound `NC(=O)c1ncc(N[C@@H]2CCCC[C@@H]2N)nc1Nc1ccc(C(=O)N2CC(F)(F)C2)nc1` [Example 297, 5-((1R,2S)-2-aminocyclohexylamino)-3-(6-(3,3-difluoroazetidine-1-carbonyl)pyridin-3-ylamino)pyrazine-2-carboxamide], the IC50 is 1 to 10 nM.

In the case of `CC(C)[C@@H](Nc1cnc(C(N)=O)c(Nc2ccc3ccncc3c2)n1)C(N)=O` [Example 195, (R)-5-(1-amino-3-methyl-1-oxobutan-2-ylamino)-3-(isoquinolin-7-ylamino)pyrazine-2-carboxamide], the IC50 was 1 to 10 nM.

For the compound `NC(=O)c1ncc(N[C@H]2CC[C@@H](N)CC2)nc1Nc1cnc2ccccc2c1` [Example 185, 5-((1s,4s)-4-aminocyclohexylamino)-3-(quinolin-3-ylamino)pyrazine-2-carboxamide], the IC50 lay within 10 to 100 nM.

Take `COc1cncc(Nc2nc(N[C@@H]3CCOC[C@@H]3N)cnc2C(N)=O)c1` [Example 358, 5-((3R,4R)-3-aminotetrahydro-2H-pyran-4-ylamino)-3-(5-methoxypyridin-3-ylamino)pyrazine-2-carboxamide]: the IC50 lay in the range of 1 to 10 nM.

As for `Cc1cccc(Nc2nc(N[C@@H]3CCNC3)cnc2C(N)=O)c1` [Example 116, (R)-5-(pyrrolidin-3-ylamino)-3-(m-tolylamino)pyrazine-2-carboxamide], the IC50 fell in the range of 1 to 10 nM.

`NC(=O)c1ncc(N[C@@H]2CCCC[C@@H]2N)nc1Nc1cc(F)c2ncccc2c1` [Example 205, 5-((1R,2S)-2-aminocyclohexylamino)-3-(8-fluoroquinolin-6-ylamino)pyrazine-2-carboxamide]: the IC50 was less than 1 nM.

For the compound `NC(=O)c1ncc(N[C@@H]2CCCC[C@@H]2N)nc1Nc1cncc(Cl)c1` [Example 217, 5-((1R,2S)-2-aminocyclohexylamino)-3-(5-chloropyridin-3-ylamino)pyrazine-2-carboxamide], the IC50 was 1 to 10 nM.

On to `CC[C@@H](Nc1cnc(C(N)=O)c(Nc2ccc3c(c2)CCC(=O)N3)n1)C(N)=O` [Example 30, (R)-5-(1-amino-1-oxobutan-2-ylamino)-3-(2-oxo-1,2,3,4-tetrahydroquinolin-6-ylamino)pyrazine-2-carboxamide], for which the IC50 fell in the range of 1 to 10 nM.

With `CC(C)[C@@H](Nc1cnc(C(N)=O)c(Nc2cnc3ccc(F)cc3c2)n1)C(N)=O` [Example 200, (R)-5-(1-amino-3-methyl-1-oxobutan-2-ylamino)-3-(6-fluoroquinolin-3-ylamino)pyrazine-2-carboxamide], the IC50 lay within 1 to 10 nM.

For `CC[C@@H](Nc1cnc(C(N)=O)c(Nc2cncc(OC)c2)n1)C(N)=O` [Example 322, (R)-5-(1-amino-1-oxobutan-2-ylamino)-3-(5-methoxypyridin-3-ylamino)pyrazine-2-carboxamide], the IC50 was 100 to 1000 nM.

For the compound `Cc1cc(Nc2nc(NC3(C(N)=O)CCCCC3)cnc2C(N)=O)sn1` [Example 401, 5-(1-carbamoylcyclohexylamino)-3-(3-methylisothiazol-5-ylamino)pyrazine-2-carboxamide], the IC50 is 10 to 100 nM.
